Read-outs that look alike come from different tables or passages of the source.
What was measured:
[1] = biological target: GluN1/GluN2D subtype of NMDA receptors (Rattus norvegicus, UniProt Q62645); experiment: NMDA receptor subunit selectivity, GluN1/GluN2D in Xenopus oocytes; type: cell-based; settings: 2 min; 10 μM antagonist with 50 μM glutamate and 30 μM glycine, two min; agonists alone = 100%; read-out: GluN2D % Current Remaining
Description: (§1) Stage V and VI oocytes were surgically removed from the ovaries of large, well-fed and healthy Xenopus laevis anesthetized with 3-amino-benzoic acid ethyl ester (3 gm/l). Clusters of isolated oocytes were incubated with 292 U/ml Worthington (Freehold, N.J.) type IV collagenase or 1.3 mg/ml collagenase (Life Technologies, Gaithersburg, Md.; 17018-029) for 2 hr in Ca^2+-free solution comprised of (in mM) 115 NaCl, 2.5 KCl, and 10 HEPES, pH 7.5, with slow agitation to remove the follicular cell layer. Oocytes were then washed in the same solution supplemented with 1.8 mM CaCl2 and maintained in Barth's solution comprised of (in mM): 88 NaCl, 1 KCl, 2.4 NaHCO3, 10 HEPES, 0.82 MgSO4, 0.33 Ca(NO3)2, and 0.91 CaCl2 and supplemented with 100 μg/ml gentamycin, 10 μg/ml streptomycin, and 10 μg/ml penicillin. Oocytes were manually defolliculated and injected within 24 hrs of isolation with 3-5 ng of GluN1 subunit cRNA and 7-10 ng of GluN2 cRNA subunit in a 50 nl volume, and incubated in Barth's solution at 18° C. for 2-7 d. Glass injection pipettes had tip sizes ranging from 10-20 microns, and were backfilled with mineral oil. cRNA was synthesized from linearized template cDNA for rat glutamate receptor subunits according to manufacturer specifications (Ambion).
(§2) Two electrode voltage-clamp recordings were made 2-7 days post-injection. Oocytes were placed in a dual-track plexiglass recording chamber with a single perfusion line that splits in a Y-configuration to perfuse two oocytes. Dual recordings were made at room temperature (23° C.) using two Warner 00725B two-electrode voltage clamp amplifiers, arranged as recommended by the manufacturer. Glass microelectrodes (1-10 Megaohms) were filled with 300 mM KCl (voltage electrode) or 3 M KCl (current electrode). The bath clamps communicated across silver chloride wires placed into each side of the recording chamber, both of which were assumed to be at a reference potential of 0 mV. Oocytes were perfused with a solution comprised of (in mM) 90 NaCl, 1 KCl, 10 HEPES, […] and 0.5 BaCl2; pH was adjusted by addition of 1-3 M NaOH or HCl. Oocytes were recorded under voltage clamp at −40 mV. Final concentrations for glutamate and glycine were 50 μM and 30 μM, respectively. Concentration-response curves for experimental compounds were obtained by applying in successive fashion maximal glutamate/glycine, followed by glutamate/glycine plus variable concentrations of experimental compounds. Dose response curves consisting of 4 to 8 concentrations were obtained in this manner. The baseline leak current at −40 mV was measured before and after recording, and the full recording linearly corrected for any change in leak current. The level of inhibition by applied experimental compounds was expressed as a percent of the initial glutamate response, and averaged together across oocytes from multiple experiments. Results were pooled, and the average percent responses at antagonist concentrations were fit by the equation,
(§3) GluN1/GluN2A and GluN1/GluN2D subtype of NMDA receptors were expressed in Xenopus laevis as described in Example 13. Here, a 10 μM concentration of the antagonist was perfused with 50 μM glutamate and 30 μM glycine onto the oocyte for two min and the remaining current in the presence of the antagonist was compared to the maximal current obtained with 50 μM glutamate and 30 μM glycine alone (defined as 100%).

[2] = biological target: T1, human ether-a-go-go potassium channel (hERG) expressed in HEK293 cells (Homo sapiens, UniProt Q12809); experiment: hERG binding, displacement of [3H]-astemizole; settings: 10 μM test compound, 1.5 nM [3H]-astemizole, duplicate
T1 construct: expressed in transfected cells; host or cells: HEK293 cells
Description: (§4) Binding to the human ether-a-go-go potassium channel (hERG) expressed in HEK293 cells by displacement of 1.5 nM [3H]-astemizole. Each result represents the average of displacement binding experiments done in duplicate at 10 uM of the test compound. Percent displacement of 0.25 nM [3H]-prazosin from Wistar rat brain membranes. Each result represents the average of displacement binding experiments done in duplicate at 3 μM of the test compound.

GluN1/GluN2B receptors [3] = biological target: GluN1/GluN2B receptors (Rattus norvegicus, UniProt P35439+Q00960); experiment: IC50 of GluN1/GluN2B receptors expressed in Xenopus oocytes (two electrode voltage-clamp), rat; type: cell-based; settings: pH 7.4, 50 μM glutamate, 30 μM glycine
Description: as §1, §2
Percent Response=(100−minimum)/(1+([conc]/IC50)^nH)+minimum
where minimum is the residual percent response in saturating concentration of the experimental compounds, IC50 is the concentration of antagonist that causes half of the achievable inhibition, and nH is a slope factor describing steepness of the inhibition curve. Minimum was constrained to be greater than or equal to 0.
Recordings were made at pH 6.9, pH 7.4, and pH 7.6. The pH Boost ratio calculated by dividing the IC50 measured at pH 7.6 by the IC50 measured at pH 6.9.

[4] = biological target: GluN1/GluN2A subtype of NMDA receptors (Rattus norvegicus, UniProt Q00959); experiment: NMDA receptor subunit selectivity, GluN1/GluN2A in Xenopus oocytes; type: cell-based; settings: 2 min; 10 μM antagonist with 50 μM glutamate and 30 μM glycine, two min; agonists alone = 100%; read-out: GluN2A % Current Remaining
Description: as §1, §2, §3

α1-Adrenergic = α1-Adrenergic binding, displacement of [3H]-prazosin from brain membranes; settings: 3 μM test compound, 0.25 nM [3H]-prazosin, Wistar rat brain membranes, duplicate
Description: as §4

GluN1/GluN2B receptors [5] = biological target: GluN1/GluN2B receptors (Homo sapiens, UniProt Q05586+Q13224); experiment: IC50 of GluN1/GluN2B receptors expressed in Xenopus oocytes (two electrode voltage-clamp), human; type: cell-based; settings: for Human pH Boost Ratio (IC50 pH 7.6/IC50 pH 6.9): IC50 at pH 7.6 divided by IC50 at pH 6.9; for IC50: 30 μM glycine
[6] = biological target: GluN1/GluN2B-NMDA receptors (Homo sapiens, UniProt Q05586+Q13224); experiment: Noncompetitive block of GluN1/GluN2B-NMDA receptors in Xenopus oocytes; type: cell-based; settings: 0.1 μM compound 24; increasing glutamate (30 μM glycine) or increasing glycine (30 μM glutamate)
Description: Results shown are the mean±SEM of 7 (panel A) or 6 (panel B) oocytes.
Stage V and VI oocytes were surgically removed from the ovaries of large, well-fed and healthy Xenopus laevis anesthetized with 3-amino-benzoic acid ethyl ester (3 gm/l). Clusters of isolated oocytes were incubated with 292 U/ml Worthington (Freehold, N.J.) type IV collagenase or 1.3 mg/ml collagenase (Life Technologies, Gaithersburg, Md.; 17018-029) for 2 hr in Ca^2+-free solution comprised of (in mM) 115 NaCl, 2.5 KCl, and 10 HEPES, pH 7.5, with slow agitation to remove the follicular cell layer. Oocytes were then washed in the same solution supplemented with 1.8 mM CaCl2 and maintained in Barth's solution comprised of (in mM): 88 NaCl, 1 KCl, 2.4 NaHCO3, 10 HEPES, 0.82 MgSO4, 0.33 Ca(NO3)2, and 0.91 CaCl2 and supplemented with 100 μg/ml gentamycin, 10 μg/ml streptomycin, and 10 μg/ml penicillin. […]
Two electrode voltage-clamp recordings were made 2-7 days post-injection. […] Oocytes were recorded under voltage clamp at −40 mV. […] The baseline leak current at −40 mV was measured before and after recording, and the full recording linearly corrected for any change in leak current. The level of inhibition by applied experimental compounds was expressed as a percent of the initial glutamate response, and averaged together across oocytes from multiple experiments. […]

[7] = pH 6.9, 50 μM glutamate, read-out: Human pH 6.9 IC50
[8] = pH 7.4, 50 μM glutamate, read-out: Human pH 7.4 IC50

T1 sequence (Q12809 whole entry): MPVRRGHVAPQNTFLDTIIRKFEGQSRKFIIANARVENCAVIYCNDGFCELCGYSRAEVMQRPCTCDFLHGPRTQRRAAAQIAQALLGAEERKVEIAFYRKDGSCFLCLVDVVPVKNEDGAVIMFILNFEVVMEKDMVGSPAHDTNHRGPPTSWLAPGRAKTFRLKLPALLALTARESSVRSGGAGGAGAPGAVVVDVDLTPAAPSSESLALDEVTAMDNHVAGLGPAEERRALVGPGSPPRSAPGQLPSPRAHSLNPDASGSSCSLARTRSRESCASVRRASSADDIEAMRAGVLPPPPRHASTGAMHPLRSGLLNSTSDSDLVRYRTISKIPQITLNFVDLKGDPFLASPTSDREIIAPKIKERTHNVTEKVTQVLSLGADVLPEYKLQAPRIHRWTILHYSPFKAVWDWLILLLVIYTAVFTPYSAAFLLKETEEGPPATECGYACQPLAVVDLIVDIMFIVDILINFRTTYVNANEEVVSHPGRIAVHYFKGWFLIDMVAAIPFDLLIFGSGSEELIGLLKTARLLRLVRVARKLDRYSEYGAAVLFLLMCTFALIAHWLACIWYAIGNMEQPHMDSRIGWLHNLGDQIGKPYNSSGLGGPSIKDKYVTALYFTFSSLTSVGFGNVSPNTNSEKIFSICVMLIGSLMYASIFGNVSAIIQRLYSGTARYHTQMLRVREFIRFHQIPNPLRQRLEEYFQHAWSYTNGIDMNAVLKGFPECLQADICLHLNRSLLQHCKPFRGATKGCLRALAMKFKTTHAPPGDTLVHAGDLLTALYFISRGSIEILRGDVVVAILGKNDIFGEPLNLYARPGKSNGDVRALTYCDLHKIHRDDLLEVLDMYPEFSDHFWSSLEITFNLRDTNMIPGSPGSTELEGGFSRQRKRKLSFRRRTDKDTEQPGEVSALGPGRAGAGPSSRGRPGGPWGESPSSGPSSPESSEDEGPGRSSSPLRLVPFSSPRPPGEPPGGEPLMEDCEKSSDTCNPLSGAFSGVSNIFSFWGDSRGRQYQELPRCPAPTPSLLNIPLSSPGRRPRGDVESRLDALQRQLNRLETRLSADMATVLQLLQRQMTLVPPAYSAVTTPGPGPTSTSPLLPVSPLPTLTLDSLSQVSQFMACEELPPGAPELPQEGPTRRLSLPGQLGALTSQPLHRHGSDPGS
Sequence of GluN1/GluN2B receptors (Rattus norvegicus, UniProt P35439+Q00960) (Q00960 27-1482, other chains not shown): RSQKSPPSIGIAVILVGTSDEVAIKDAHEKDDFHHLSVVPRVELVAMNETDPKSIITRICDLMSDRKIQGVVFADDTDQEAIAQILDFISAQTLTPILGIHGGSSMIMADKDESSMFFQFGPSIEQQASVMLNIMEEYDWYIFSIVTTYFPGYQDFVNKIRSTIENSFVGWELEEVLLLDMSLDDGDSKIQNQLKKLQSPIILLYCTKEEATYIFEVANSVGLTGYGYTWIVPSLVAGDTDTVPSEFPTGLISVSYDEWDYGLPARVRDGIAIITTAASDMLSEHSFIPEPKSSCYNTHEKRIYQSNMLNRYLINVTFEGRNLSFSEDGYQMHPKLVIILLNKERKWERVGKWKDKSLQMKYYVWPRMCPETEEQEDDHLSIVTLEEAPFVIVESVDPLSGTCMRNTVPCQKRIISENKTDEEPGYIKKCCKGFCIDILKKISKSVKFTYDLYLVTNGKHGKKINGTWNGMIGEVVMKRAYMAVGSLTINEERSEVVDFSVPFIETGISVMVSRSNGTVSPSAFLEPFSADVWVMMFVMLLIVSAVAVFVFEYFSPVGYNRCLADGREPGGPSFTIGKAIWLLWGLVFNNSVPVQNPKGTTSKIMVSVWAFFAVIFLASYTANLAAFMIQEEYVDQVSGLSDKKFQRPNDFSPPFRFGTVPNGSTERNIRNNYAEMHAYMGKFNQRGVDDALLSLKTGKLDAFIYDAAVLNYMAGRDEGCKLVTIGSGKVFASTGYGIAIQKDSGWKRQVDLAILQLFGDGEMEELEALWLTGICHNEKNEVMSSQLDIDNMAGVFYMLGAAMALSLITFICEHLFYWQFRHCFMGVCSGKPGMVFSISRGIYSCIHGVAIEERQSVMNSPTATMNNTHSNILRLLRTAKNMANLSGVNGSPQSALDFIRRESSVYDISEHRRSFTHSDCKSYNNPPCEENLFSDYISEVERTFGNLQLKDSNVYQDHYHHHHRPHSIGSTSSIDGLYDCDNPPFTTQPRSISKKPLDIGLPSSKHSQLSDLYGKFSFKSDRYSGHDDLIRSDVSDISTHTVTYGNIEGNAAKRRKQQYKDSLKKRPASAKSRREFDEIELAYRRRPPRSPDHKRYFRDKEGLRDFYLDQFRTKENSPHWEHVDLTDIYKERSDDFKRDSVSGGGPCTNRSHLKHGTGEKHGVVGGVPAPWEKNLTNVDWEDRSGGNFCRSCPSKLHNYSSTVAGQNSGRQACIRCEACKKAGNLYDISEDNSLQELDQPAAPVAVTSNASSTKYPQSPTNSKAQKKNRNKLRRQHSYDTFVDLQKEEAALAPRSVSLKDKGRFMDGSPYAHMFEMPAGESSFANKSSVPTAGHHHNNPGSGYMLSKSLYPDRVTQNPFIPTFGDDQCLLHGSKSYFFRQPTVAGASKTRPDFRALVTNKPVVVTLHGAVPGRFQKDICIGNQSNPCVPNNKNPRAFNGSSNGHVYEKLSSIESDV
Sequence of GluN1/GluN2A subtype of NMDA receptors (Q00959 23-1464, other chains not shown): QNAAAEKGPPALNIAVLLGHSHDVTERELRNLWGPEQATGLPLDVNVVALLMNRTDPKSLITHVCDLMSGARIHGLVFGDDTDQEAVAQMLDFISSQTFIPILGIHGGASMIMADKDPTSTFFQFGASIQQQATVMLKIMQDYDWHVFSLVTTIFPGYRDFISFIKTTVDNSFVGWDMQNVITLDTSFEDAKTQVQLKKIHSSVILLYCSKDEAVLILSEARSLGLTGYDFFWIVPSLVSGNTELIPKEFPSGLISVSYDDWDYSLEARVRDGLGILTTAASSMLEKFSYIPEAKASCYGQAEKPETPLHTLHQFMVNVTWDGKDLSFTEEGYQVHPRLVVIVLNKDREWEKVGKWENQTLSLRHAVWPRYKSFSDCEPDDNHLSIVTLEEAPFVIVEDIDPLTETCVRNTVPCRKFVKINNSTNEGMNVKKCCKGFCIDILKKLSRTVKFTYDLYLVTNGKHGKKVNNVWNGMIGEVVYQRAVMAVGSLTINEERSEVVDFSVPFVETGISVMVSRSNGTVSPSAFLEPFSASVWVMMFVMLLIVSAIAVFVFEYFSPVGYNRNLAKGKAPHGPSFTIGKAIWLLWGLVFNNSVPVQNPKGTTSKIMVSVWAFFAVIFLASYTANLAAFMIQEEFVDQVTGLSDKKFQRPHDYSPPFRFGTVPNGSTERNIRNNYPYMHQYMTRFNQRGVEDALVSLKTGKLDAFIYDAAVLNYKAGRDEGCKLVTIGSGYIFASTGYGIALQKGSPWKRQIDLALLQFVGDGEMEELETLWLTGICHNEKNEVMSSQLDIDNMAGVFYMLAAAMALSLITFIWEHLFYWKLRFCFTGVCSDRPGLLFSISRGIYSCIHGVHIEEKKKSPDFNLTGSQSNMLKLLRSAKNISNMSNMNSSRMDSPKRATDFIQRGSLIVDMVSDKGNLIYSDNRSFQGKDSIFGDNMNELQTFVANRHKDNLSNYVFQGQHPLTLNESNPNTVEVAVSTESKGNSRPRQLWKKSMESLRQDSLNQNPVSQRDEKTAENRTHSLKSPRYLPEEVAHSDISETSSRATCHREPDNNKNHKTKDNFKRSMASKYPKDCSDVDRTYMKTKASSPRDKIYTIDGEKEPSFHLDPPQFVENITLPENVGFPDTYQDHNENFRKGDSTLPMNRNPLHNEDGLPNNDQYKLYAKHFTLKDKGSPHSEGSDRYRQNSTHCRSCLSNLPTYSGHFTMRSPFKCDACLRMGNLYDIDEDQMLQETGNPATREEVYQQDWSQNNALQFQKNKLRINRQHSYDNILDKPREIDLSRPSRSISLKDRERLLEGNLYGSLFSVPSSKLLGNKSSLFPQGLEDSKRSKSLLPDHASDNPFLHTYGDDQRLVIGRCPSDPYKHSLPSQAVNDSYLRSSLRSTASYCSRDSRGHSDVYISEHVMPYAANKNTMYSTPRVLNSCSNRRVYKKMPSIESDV

| remaining activity at 10 µM [1] | IC50 (GluN1/GluN2B receptors [3]) | remaining activity at 10 µM [4] | α1-Adrenergic binding % Displacement @ 3 μM (α1-Adrenergic) | Human pH Boost Ratio (IC50 pH 7.6/IC50 pH 6.9) (GluN1/GluN2B receptors [5]) | IC50 (GluN1/GluN2B receptors [5]; [7]) | IC50 (GluN1/GluN2B receptors [5]; [8]) | Block on increasing glutamate and increasing glycine [6] | Structure (SMILES) | hERG Binding % Displacement @ 10 μM [2] |
| --- | --- | --- | --- | --- | --- | --- | --- | --- | --- |
| 104% |  | 111% |  | 1.8 | 740 nM |  |  | O=C(Nc1ccc(Cl)cc1)N1CCC(COc2ccc(O)cc2)CC1 [Compound 33] |  |
| 104% |  | 104% |  | 1.2 | 764 nM |  |  | O=C(Nc1ccc(Cl)c(Cl)c1)N1CCC(COc2ccc(O)cc2)CC1 [Compound 35, N-(3,4-dichlorophenyl)-4-((4-hydroxyphenoxy)methyl)-piperidine-1-carboxamide] |  |
| 87.6% | 53 nM | 94.6% | 25% | 3.0 | 19 nM | 41 nM |  | O=C1CCc2cc(OCC3CN(C(=O)Nc4ccc(Cl)c(Cl)c4)C3)ccc2N1 [Compound 23, N-(3,4-dichlorophenyl)-3-(((2-oxo-1,2,3,4-tetrahydroquinolin-6-yl)oxy)methyl)azetidine-1-carboxamide] | 60% |
| 106% | 339 nM | 105% | 16% | 2.0 | 283 nM | 468 nM |  | O=C1CCc2cc(OCC3CCN(C(=O)Nc4ccc(Cl)cc4)CC3)ccc2N1 [Compound 13, N-(4-chlorophenyl)-4-(((2-oxo-1,2,3,4-tetrahydroquinolin-6-yl)oxy)methyl)piperidine-1-carboxamide] | 37% |

Further lines, the molecule ahead of its results:

| Structure (SMILES) | remaining activity at 10 µM [1] | IC50 (GluN1/GluN2B receptors [3]) | remaining activity at 10 µM [4] | α1-Adrenergic binding % Displacement @ 3 μM (α1-Adrenergic) | Human pH Boost Ratio (IC50 pH 7.6/IC50 pH 6.9) (GluN1/GluN2B receptors [5]) | IC50 (GluN1/GluN2B receptors [5]; [7]) | IC50 (GluN1/GluN2B receptors [5]; [8]) | Block on increasing glutamate and increasing glycine [6] | hERG Binding % Displacement @ 10 μM [2] |
| --- | --- | --- | --- | --- | --- | --- | --- | --- | --- |
| O=C1CCc2cc(OCC3CCN(C(=O)Nc4ccc(C(F)(F)F)cc4)CC3)ccc2N1 [Compound 17, 4-(((2-oxo-1,2,3,4-tetrahydroquinolin-6-yl)oxy)methyl)-N-(4-(trifluoromethyl)phenyl)piperidine-1-carboxamide] | 93.9% | 359 nM | 98.7% | 7% | 2.0 | 237 nM | 517 nM |  | 75% |
| O=C1CCc2cc(OCC3CN(C(=O)NCc4ccc(Cl)cc4)C3)ccc2N1 [Compound 28, N-(4-chlorobenzyl)-3-(((2-oxo-1,2,3,4-tetrahydroquinolin-6-yl)oxy)methyl)azetidine-1-carboxamide] | 94.5% | 4900 nM | 102% | 12% | 3.5 | 2300 nM | 3500 nM |  | 27% |
| O=C1CCc2cc(OCC3CCN(C(=O)/C=C/c4ccc(Cl)c(Cl)c4)CC3)ccc2N1 [Compound 6, (E)-6-((1-(3-(3,4-dichlorophenyl)acryloyl)piperidin-4-yl)methoxy)-3,4-dihydroquinolin-2(1H)-one] | 101% | 1270 nM | 103% | 28% | 1.1 | 886 nM | 1640 nM |  | 85% |
| O=C1CCc2cc(OCC3CN(C(=O)Nc4ccc(C(F)(F)F)cc4)C3)ccc2N1 [Compound 24, 3-(((2-oxo-1,2,3,4-tetrahydroquinolin-6-yl)oxy)methyl)-N-(4-(trifluoromethyl)phenyl)azetidine-1-carboxamide] | 84.5% | 54 nM | 94.2% | 12% | 3.6 | 27 nM | 74 nM | cannot overcome the block | 68% |
| O=C1CCc2cc(OCC3CCN(C(=O)Cc4ccc(Cl)cc4)CC3)ccc2N1 [Compound 15, 6-((1-(2-(4-chlorophenyl)acetyl)piperidin-4-yl)methoxy)-3,4-dihydroquinolin-2(1H)-one] | 101% | 3200 nM | 96.3% | 13% | 8.6 | 490 nM | 2000 nM |  | 18% |
| O=C1CCc2cc(OCC3CN(C(=O)n4ccnc4)C3)ccc2N1 [Compound 26, 6-((1-(1H-imidazole-1-carbonyl)azetidin-3-yl)methoxy)-3,4-dihydroquinolin-2(1H)-one] | 94.9% | 6100 nM | 102% | <1% |  | > 30000 nM | > 10000 nM |  | <1% |
| O=C1CCc2cc(OCC3CN(C(=O)Nc4ccc(Cl)cc4)C3)ccc2N1 [Compound 21, N-(4-chlorophenyl)-3-(((2-oxo-1,2,3,4-tetrahydroquinolin-6-yl)oxy)methyl)azetidine-1-carboxamide] | 89.2% | 166 nM | 102% | 2% | 1.7 | 103 nM | 170 nM |  | 25% |
| O=C1CCc2cc(OCC3CCN(C(=O)OCc4ccc(Cl)cc4)CC3)ccc2N1 [Compound 11, 4-chlorobenzyl 4-(((2-oxo-1,2,3,4-tetrahydroquinolin-6-yl)oxy)methyl)piperidine-1-carboxylate] | 104% | 837 nM | 111% | 16% | 1.4 | 589 nM | 868 nM |  | 56% |

Source: patent publication US20140148432A1, “Compounds for the Treatment of Neurological Disorders” (priority 2009, published 2014)
